Measured values from publication PMC9525273 (Nature Communications, 2022).
“And” between values parts separate entries of the source, which are not always exact repeats. Identical values can stand only once. Like-named read-outs stand apart in the source and are kept apart here.

Target: T1, TgATP4^WT (membranes from T. gondii tachyzoites) (Toxoplasma gondii, UniProt B9QMJ0)
T1 sequence (B9QMJ0 1-1338): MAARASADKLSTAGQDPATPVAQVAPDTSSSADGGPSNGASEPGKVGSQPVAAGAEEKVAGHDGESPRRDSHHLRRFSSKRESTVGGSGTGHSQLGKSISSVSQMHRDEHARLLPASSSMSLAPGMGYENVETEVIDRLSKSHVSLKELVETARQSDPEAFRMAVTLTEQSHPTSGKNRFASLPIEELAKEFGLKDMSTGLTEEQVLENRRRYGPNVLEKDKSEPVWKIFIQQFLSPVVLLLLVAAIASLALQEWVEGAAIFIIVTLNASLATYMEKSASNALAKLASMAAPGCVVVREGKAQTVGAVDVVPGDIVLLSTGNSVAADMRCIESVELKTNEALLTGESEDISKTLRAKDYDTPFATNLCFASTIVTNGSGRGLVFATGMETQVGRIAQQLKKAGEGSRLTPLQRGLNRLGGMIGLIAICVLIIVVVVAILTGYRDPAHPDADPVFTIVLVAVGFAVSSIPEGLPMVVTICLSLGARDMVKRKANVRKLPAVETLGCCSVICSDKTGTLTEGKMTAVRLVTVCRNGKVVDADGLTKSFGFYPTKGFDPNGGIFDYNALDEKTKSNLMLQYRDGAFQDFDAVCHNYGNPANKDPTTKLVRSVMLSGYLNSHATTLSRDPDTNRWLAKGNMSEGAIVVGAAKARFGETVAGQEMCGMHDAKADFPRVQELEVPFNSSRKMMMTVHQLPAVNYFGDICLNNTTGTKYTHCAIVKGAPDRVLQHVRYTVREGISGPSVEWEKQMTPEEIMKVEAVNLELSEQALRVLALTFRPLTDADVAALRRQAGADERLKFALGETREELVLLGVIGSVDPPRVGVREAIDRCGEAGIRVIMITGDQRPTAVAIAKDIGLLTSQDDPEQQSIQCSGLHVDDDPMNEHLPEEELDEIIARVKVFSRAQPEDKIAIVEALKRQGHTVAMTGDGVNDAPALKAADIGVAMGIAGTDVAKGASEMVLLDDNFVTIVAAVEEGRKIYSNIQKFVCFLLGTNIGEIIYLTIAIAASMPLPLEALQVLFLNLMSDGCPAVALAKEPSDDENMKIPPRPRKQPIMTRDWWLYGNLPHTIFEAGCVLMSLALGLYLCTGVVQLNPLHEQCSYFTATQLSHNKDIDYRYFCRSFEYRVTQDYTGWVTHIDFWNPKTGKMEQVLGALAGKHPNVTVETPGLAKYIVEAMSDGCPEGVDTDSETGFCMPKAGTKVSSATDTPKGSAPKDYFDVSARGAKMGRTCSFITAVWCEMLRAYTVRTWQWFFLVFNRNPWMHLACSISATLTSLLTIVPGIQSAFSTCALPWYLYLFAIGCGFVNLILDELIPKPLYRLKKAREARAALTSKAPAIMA
Test: Membrane ATPase assay, ATP4-associated (Na+-dependent) ATPase activity
Format: biochemical
Design: IC50 for inhibition of ATP4-associated ATPase activity, MEAN: unit: nM
Details: for IC50 for inhibition of ATP4-associated ATPase activity, MEAN: WT T. gondii membranes, source data of Table 1 (nM there); for IC50 for ATP4-associated ATPase activity: membranes from WT T. gondii (TgATP4WT), mean ± SEM
Procedure: Membranes from isolated P. falciparum or extracellular T. gondii parasites were prepared by lysing parasites in ice-cold deionized water containing a 1:500 dilution of Protease Inhibitor Cocktail Set III (Merck Millipore), then washing the membrane preparation three times in ice-cold deionized water (with protease inhibitors present for the first two washes)[15]. Protein concentrations in the membrane preparations were measured using a Bradford assay. The PiColorLock Gold Phosphate Detection System (Innova Biosciences) was used to measure the production of Pi from hydrolysis of ATP[15]. Membrane preparations were diluted in either a high Na^+ solution (yielding final conditions in the reactions of 150 mM NaCl, 20 mM KCl, 2 mM MgCl2, 50 mM Tris, pH 7.2) or a Na^+-free solution (yielding final conditions of 150 mM choline chloride, 20 mM KCl, 2 mM MgCl2, 50 mM Tris, pH 7.2) to achieve a total protein concentration of 50 μg/mL. […] The reactions were performed at 37 °C, and were initiated by the addition of 1 mM ATP (Na2ATP۰3H2O; MP Biomedicals) and terminated 10 min later by adding 100 μL of reaction mixture (in duplicate) to 25 μL “Gold mix” in a 96-well plate. “Stabiliser” was added 3 min later, and the plates incubated at room temperature in the dark for 60 min before measuring absorbance at 635 nm. Background values (averaged from wells containing all components, but to which ATP was not added until after the membrane was exposed to Gold mix) were subtracted from the data. For each treatment, the ATPase activity associated with the (Na^+-dependent) PfATP4 and TgATP4 proteins was calculated by subtracting data obtained in the low Na^+ condition (containing only the 2 mM Na^+ introduced on addition of 1 mM Na2ATP) from that obtained in the high Na^+ condition.

Compound: N#Cc1cc(NC(=O)[C@H]2c3ccccc3C(=O)N(CC(F)(F)F)[C@@H]2c2cccnc2)ccc1F [(+)-SJ733]
- IC50 for inhibition of ATP4-associated ATPase activity, MEAN (MEAN): 17.77
- remaining activity at 0.000122 µM (WT T. gondii, [(+)-SJ733] 0.122 nM, MEAN, read-out: TgATP4-associated ATPase activity (% of control)): 105%
- TgATP4-associated ATPase activity (% of control) (WT T. gondii, [(+)-SJ733] 0.122 nM, single experiments, 0.000122 µM): 99.5 % of control and 113.7 % of control
- remaining activity at 0.000122 µM (WT T. gondii, [(+)-SJ733] 0.122 nM, single experiments, read-out: TgATP4-associated ATPase activity (% of control)): 102%
- remaining activity at 0.000244 µM (WT T. gondii, [(+)-SJ733] 0.244 nM, MEAN, read-out: TgATP4-associated ATPase activity (% of control)): 104%
- TgATP4-associated ATPase activity (% of control) (WT T. gondii, [(+)-SJ733] 0.244 nM, single experiments, 0.000244 µM): 103.7 % of control and 108.4 % of control
- remaining activity at 0.000244 µM (WT T. gondii, [(+)-SJ733] 0.244 nM, single experiments, read-out: TgATP4-associated ATPase activity (% of control)): 99.9%
- remaining activity at 0.0005 µM (WT T. gondii, [(+)-SJ733] 0.5 nM, MEAN, read-out: TgATP4-associated ATPase activity (% of control)): 93.6%
- TgATP4-associated ATPase activity (% of control) (WT T. gondii, [(+)-SJ733] 0.5 nM, single experiments, 0.0005 µM): 96.1 % of control and 95.1 % of control
- remaining activity at 0.0005 µM (WT T. gondii, [(+)-SJ733] 0.5 nM, single experiments, read-out: TgATP4-associated ATPase activity (% of control)): 89.6%
- remaining activity at 0.001 µM (WT T. gondii, [(+)-SJ733] 1.0 nM, MEAN, read-out: TgATP4-associated ATPase activity (% of control)): 102%
- TgATP4-associated ATPase activity (% of control) (WT T. gondii, [(+)-SJ733] 1.0 nM, single experiments, 0.001 µM): 96.8 % of control and 112.7 % of control
- remaining activity at 0.001 µM (WT T. gondii, [(+)-SJ733] 1.0 nM, single experiments, read-out: TgATP4-associated ATPase activity (% of control)): 94.9%
- remaining activity at 0.002 µM (WT T. gondii, [(+)-SJ733] 2.0 nM, MEAN, read-out: TgATP4-associated ATPase activity (% of control)): 95.7%
- TgATP4-associated ATPase activity (% of control) (WT T. gondii, [(+)-SJ733] 2.0 nM, single experiments, 0.002 µM): 71.9 % of control and 96.8 % of control and 118.4 % of control
- remaining activity at 0.0039 µM (WT T. gondii, [(+)-SJ733] 3.9 nM, MEAN, read-out: TgATP4-associated ATPase activity (% of control)): 90.6%
- TgATP4-associated ATPase activity (% of control) (WT T. gondii, [(+)-SJ733] 3.9 nM, single experiments, 0.0039 µM): 69.6 % of control and 88.2 % of control and 113.9 % of control
- remaining activity at 0.0078 µM (WT T. gondii, [(+)-SJ733] 7.8 nM, MEAN, read-out: TgATP4-associated ATPase activity (% of control)): 78.4%
- TgATP4-associated ATPase activity (% of control) (WT T. gondii, [(+)-SJ733] 7.8 nM, single experiments, 0.0078 µM): 63.9 % of control and 63.6 % of control and 107.7 % of control
- remaining activity at 0.0156 µM (WT T. gondii, [(+)-SJ733] 15.6 nM, MEAN, read-out: TgATP4-associated ATPase activity (% of control)): 52.5%
- remaining activity at 0.0313 µM (WT T. gondii, [(+)-SJ733] 31.3 nM, MEAN, read-out: TgATP4-associated ATPase activity (% of control)): 42.7%
- remaining activity at 0.0625 µM (WT T. gondii, [(+)-SJ733] 62.5 nM, MEAN, read-out: TgATP4-associated ATPase activity (% of control)): 31.7%
- remaining activity at 0.25 µM (WT T. gondii, [(+)-SJ733] 250 nM, MEAN, read-out: TgATP4-associated ATPase activity (% of control)): 20.9%
- remaining activity at 0.5 µM (WT T. gondii, [(+)-SJ733] 500 nM, MEAN, read-out: TgATP4-associated ATPase activity (% of control)): 14.7%
- IC50 for ATP4-associated ATPase activity: 17.8 ± 9.2 (3) nM

Compound: C[C@H]1Cc2c([nH]c3cc(Cl)c(F)cc23)[C@@]2(N1)C(=O)Nc1ccc(Cl)cc12 [Cipargamin]
- IC50 for inhibition of ATP4-associated ATPase activity, MEAN (MEAN): 8.39
- remaining activity at 60 pM (WT T. gondii, Cipargamin 0.06 nM, MEAN, read-out: TgATP4-associated ATPase activity (% of control)): 98.4%
- TgATP4-associated ATPase activity (% of control) (WT T. gondii, Cipargamin 0.06 nM, single experiments): 98.0 % of control
- remaining activity at 60 pM (WT T. gondii, Cipargamin 0.06 nM, single experiments, read-out: TgATP4-associated ATPase activity (% of control)): 98.9%
- remaining activity at 0.00012 µM (WT T. gondii, Cipargamin 0.12 nM, MEAN, read-out: TgATP4-associated ATPase activity (% of control)): 101%
- TgATP4-associated ATPase activity (% of control) (WT T. gondii, Cipargamin 0.12 nM, single experiments): 100.0 % of control and 99.7 % of control and 103.4 % of control
- remaining activity at 0.00012 µM (WT T. gondii, Cipargamin 0.12 nM, single experiments, read-out: TgATP4-associated ATPase activity (% of control)): 100%
- remaining activity at 0.00024 µM (WT T. gondii, Cipargamin 0.24 nM, MEAN, read-out: TgATP4-associated ATPase activity (% of control)): 91.8%
- TgATP4-associated ATPase activity (% of control) (WT T. gondii, Cipargamin 0.24 nM, single experiments): 81.4 % of control and 81.6 % of control and 107.2 % of control and 96.9 % of control
- remaining activity at 0.00049 µM (WT T. gondii, Cipargamin 0.49 nM, MEAN, read-out: TgATP4-associated ATPase activity (% of control)): 76.3%
- remaining activity at 0.00098 µM (WT T. gondii, Cipargamin 0.98 nM, MEAN, read-out: TgATP4-associated ATPase activity (% of control)): 66.1%
- remaining activity at 0.00195 µM (WT T. gondii, Cipargamin 1.95 nM, MEAN, read-out: TgATP4-associated ATPase activity (% of control)): 47.3%
- remaining activity at 0.0039 µM (WT T. gondii, [cipargamin] 3.9 nM, MEAN, read-out: TgATP4-associated ATPase activity (% of control)): 34.5%
- remaining activity at 0.0078 µM (WT T. gondii, [cipargamin] 7.8 nM, MEAN, read-out: TgATP4-associated ATPase activity (% of control)): 38.1%
- remaining activity at 0.0156 µM (WT T. gondii, [cipargamin] 15.6 nM, MEAN, read-out: TgATP4-associated ATPase activity (% of control)): 21.9%
- remaining activity at 0.0313 µM (WT T. gondii, [cipargamin] 31.3 nM, MEAN, read-out: TgATP4-associated ATPase activity (% of control)): 13.1%
- remaining activity at 0.0625 µM (WT T. gondii, [cipargamin] 62.5 nM, MEAN, read-out: TgATP4-associated ATPase activity (% of control)): 6.8%
- IC50 for ATP4-associated ATPase activity: 8.4 ± 5.8 (4) nM
